Laboratory results taken from ChEMBL document CHEMBL5291721, “A preclinical secondary pharmacology resource illuminates target-adverse drug reaction associations of marketed drugs” (Nat Commun, 2023).

Assays:
D(3) dopamine receptor = D(3) dopamine receptor (Homo sapiens, UniProt P35462)
[1] = biological target: T1, Muscarinic acetylcholine receptor M2 (Homo sapiens, UniProt P08172)
T1 sequence (P08172 whole entry): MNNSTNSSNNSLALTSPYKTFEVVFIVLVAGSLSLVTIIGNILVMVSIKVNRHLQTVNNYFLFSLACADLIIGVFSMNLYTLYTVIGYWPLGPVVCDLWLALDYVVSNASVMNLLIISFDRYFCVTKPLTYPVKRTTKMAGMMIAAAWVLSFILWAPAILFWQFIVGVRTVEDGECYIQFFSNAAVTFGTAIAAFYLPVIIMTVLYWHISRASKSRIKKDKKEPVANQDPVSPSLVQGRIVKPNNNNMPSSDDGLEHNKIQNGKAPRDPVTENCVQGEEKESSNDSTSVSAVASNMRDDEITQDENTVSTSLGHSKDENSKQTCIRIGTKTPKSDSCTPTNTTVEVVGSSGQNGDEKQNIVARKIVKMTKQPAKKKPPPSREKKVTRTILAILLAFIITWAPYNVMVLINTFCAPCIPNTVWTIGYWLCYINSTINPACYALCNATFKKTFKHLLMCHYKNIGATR

[2] = biological target: Sodium-dependent dopamine transporter (Homo sapiens, UniProt Q01959)
Sequence of Sodium-dependent dopamine transporter (Q01959 whole entry): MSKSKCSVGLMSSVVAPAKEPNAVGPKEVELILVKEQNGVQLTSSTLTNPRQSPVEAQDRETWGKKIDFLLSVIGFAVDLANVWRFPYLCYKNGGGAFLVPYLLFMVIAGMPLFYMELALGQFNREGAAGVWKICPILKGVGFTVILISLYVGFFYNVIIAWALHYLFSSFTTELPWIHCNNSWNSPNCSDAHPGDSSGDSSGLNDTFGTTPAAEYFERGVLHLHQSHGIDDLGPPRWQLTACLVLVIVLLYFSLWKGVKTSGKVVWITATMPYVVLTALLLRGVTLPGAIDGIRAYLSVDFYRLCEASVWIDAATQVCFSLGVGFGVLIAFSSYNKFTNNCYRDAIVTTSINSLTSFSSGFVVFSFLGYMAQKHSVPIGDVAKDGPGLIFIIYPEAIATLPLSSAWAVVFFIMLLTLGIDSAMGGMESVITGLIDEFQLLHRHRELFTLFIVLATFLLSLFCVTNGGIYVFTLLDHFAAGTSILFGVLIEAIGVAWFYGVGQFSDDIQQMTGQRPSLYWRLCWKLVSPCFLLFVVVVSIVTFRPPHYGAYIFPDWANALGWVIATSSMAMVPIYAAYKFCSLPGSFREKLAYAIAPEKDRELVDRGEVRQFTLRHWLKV

[3] = biological target: T2, Amine oxidase [flavin-containing] A (Homo sapiens, UniProt P21397); format: functional
T2 sequence (P21397 whole entry): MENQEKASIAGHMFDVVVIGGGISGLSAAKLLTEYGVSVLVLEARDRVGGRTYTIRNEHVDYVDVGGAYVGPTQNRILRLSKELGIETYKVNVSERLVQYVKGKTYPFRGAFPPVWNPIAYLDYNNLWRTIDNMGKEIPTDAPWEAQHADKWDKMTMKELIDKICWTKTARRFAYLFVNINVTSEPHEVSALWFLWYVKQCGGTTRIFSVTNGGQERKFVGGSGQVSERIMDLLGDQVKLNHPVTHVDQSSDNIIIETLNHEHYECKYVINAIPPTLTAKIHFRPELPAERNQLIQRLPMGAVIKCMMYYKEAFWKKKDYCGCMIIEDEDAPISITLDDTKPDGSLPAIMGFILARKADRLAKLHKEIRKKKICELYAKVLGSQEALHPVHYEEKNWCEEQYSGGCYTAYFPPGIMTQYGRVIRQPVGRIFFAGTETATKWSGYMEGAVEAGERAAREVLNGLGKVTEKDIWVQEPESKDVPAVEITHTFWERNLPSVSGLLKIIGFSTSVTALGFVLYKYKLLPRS

Thromboxane A2 receptor = biological target: T3, Thromboxane A2 receptor (Homo sapiens, UniProt P21731); format: functional, cell-based
T3 sequence (P21731 whole entry): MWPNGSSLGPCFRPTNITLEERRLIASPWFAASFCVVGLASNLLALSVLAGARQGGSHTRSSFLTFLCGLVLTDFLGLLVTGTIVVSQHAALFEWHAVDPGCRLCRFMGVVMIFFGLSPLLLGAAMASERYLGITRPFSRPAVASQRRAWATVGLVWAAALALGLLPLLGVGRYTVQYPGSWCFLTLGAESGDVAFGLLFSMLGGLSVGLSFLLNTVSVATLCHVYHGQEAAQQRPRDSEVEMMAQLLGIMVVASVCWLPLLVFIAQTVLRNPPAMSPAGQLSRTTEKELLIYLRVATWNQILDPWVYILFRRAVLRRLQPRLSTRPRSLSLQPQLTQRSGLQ

[4] = biological target: Sodium-dependent serotonin transporter (Homo sapiens, UniProt P31645)
Sequence of Sodium-dependent serotonin transporter (P31645 whole entry): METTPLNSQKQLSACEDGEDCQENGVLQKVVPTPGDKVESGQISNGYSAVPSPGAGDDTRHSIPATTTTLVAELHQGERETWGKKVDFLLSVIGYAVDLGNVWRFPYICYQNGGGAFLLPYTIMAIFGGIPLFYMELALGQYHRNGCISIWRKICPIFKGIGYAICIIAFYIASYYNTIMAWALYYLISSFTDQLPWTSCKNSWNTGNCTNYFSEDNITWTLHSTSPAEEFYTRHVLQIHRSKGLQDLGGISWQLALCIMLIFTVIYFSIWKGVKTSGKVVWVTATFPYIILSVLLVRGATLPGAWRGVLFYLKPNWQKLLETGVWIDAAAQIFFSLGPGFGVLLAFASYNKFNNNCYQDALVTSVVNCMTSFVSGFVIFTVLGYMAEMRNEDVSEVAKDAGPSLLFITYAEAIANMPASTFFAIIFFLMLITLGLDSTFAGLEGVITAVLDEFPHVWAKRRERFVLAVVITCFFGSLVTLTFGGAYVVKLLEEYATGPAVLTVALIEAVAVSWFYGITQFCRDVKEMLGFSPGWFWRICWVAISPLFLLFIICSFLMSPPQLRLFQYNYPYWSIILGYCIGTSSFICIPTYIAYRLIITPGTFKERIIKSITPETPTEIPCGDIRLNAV

Histamine H2 receptor = Histamine H2 receptor (Homo sapiens, UniProt P25021); format: functional, cell-based
Sequence of Histamine H2 receptor (P25021 whole entry): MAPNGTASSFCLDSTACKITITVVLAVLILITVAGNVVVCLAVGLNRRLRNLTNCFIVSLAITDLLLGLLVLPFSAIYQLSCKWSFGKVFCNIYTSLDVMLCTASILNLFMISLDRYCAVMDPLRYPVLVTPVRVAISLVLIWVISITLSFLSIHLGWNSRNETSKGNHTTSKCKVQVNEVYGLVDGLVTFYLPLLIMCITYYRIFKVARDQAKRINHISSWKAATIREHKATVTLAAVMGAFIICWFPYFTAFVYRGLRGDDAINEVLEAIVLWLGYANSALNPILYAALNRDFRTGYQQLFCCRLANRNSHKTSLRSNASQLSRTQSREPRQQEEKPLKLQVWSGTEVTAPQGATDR

[5] = biological target: Glutamate receptor ionotropic, NMDA 1 (Rattus norvegicus, UniProt P35439)
[6] = biological target: Beta-2 adrenergic receptor (Homo sapiens, UniProt P07550)
Sequence of Beta-2 adrenergic receptor (P07550 whole entry): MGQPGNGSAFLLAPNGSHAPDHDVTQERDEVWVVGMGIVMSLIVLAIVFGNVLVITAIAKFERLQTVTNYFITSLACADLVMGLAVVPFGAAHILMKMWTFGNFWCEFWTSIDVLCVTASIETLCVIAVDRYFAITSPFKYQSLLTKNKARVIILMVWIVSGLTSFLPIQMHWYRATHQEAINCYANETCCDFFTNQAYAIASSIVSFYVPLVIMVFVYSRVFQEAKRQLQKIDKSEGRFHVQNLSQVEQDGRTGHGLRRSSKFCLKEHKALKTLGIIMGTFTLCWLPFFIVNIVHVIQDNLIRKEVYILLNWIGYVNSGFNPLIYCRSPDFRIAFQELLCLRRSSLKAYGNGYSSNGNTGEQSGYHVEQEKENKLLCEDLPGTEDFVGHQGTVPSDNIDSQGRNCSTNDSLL

[7] = biological target: T4, 5-hydroxytryptamine receptor 1A (Homo sapiens, UniProt P08908); format: functional, cell-based
T4 sequence (P08908 whole entry): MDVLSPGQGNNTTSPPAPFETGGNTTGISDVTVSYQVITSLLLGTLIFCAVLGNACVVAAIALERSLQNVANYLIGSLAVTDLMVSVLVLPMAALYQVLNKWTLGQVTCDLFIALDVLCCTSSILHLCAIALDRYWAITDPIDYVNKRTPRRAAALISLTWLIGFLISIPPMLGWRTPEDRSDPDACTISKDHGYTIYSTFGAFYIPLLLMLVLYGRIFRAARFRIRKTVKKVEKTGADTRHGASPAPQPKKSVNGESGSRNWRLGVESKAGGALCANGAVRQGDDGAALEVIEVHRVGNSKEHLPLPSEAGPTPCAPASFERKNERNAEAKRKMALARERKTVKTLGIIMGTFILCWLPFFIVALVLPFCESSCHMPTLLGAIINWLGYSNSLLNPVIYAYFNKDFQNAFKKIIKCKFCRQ
Note: assay procedure not described here.

Sequence of D(3) dopamine receptor (P35462 whole entry): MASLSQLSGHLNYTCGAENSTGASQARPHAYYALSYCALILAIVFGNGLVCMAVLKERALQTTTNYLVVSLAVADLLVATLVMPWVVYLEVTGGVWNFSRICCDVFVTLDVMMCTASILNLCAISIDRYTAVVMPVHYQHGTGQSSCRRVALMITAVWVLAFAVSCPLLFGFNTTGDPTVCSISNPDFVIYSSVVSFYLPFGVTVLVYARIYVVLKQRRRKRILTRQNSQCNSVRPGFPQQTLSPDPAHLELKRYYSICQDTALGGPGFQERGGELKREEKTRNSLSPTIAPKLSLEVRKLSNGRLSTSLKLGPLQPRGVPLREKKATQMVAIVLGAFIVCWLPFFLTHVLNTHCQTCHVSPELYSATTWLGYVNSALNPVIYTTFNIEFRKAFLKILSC

| Structure (SMILES) | AC50 (D(3) dopamine receptor) [µM] | AC50 [1] [µM] | AC50 [2] [µM] | AC50 [3] [µM] | AC50 (Thromboxane A2 receptor) [µM] | AC50 [4] [µM] | AC50 (Histamine H2 receptor) [µM] | AC50 [5] [µM] | AC50 [6] [µM] | AC50 [7] [µM] |
| --- | --- | --- | --- | --- | --- | --- | --- | --- | --- | --- |
| O=c1[nH]cc(F)c(=O)[nH]1 [FLUOROURACIL] | > 30 | > 30 | > 30 | > 30 | > 30 |  |  |  |  |  |
| CN(C)CCc1c[nH]c2ccc(CS(=O)(=O)N3CCCC3)cc12 [ALMOTRIPTAN] |  |  |  |  |  | > 30 | > 30 | > 30 |  |  |
| CNC1(c2ccccc2Cl)CCCCC1=O (stereo not given) [KETAMINE] | > 30 | > 30 | > 30 | > 30 | > 30 |  |  |  |  |  |
| CCN(CCO)CCCC(C)Nc1ccnc2cc(Cl)ccc12 (stereo not given) [HYDROXYCHLOROQUINE] |  |  |  |  |  |  | > 10 | > 10 | > 10 | > 10 |
| CS(=O)(=O)Nc1ccc([N+](=O)[O-])cc1Oc1ccccc1 [NIMESULIDE] | > 30 | > 30 | 26.6 | > 30 | > 30 |  | > 30 | > 30 |  |  |
| COC(=O)CCc1ccc(OCC(O)CNC(C)C)cc1 (stereo not given) [ESMOLOL] |  |  |  |  |  |  | > 30 | > 30 | 27 |  |
| C[C@@H](O)[C@H]1C(=O)N2C(C(=O)O)=C(SCCN=CN)C[C@H]12 [IMIPENEM ANHYDROUS] |  |  |  |  |  | > 300 |  |  |  | > 300 |
| c1cnc2cc3c(cc2n1)[C@@H]1CNC[C@H]3C1 [VARENICLINE] |  |  |  |  |  | > 30 |  |  |  | > 30 |
| CN(C)CCC=C1c2ccccc2CCc2ccccc21 [AMITRIPTYLINE] | 0.147 |  | 7.42 | > 30 | 26.3 |  |  | > 10 | 21.1 |  |
| O=C(O)COC(=O)Cc1ccccc1Nc1c(Cl)cccc1Cl [ACECLOFENAC] |  |  |  |  |  |  | > 10 | > 10 | > 10 | > 10 |
| C#CCN(C)Cc1ccccc1 [PARGYLINE] | > 30 | > 30 | > 30 |  | > 30 |  | > 30 | > 30 |  |  |
| CC(C)NCC(O)COc1ccc(CC(N)=O)cc1 (stereo not given) [ATENOLOL] |  |  |  |  |  |  | > 30 | > 30 |  |  |
| CO[C@@H]1[C@@H](OC(N)=O)[C@@H](O)[C@H](Oc2ccc3c(O)c(NC(=O)c4ccc(O)c(CC=C(C)C)c4)c(=O)oc3c2C)OC1(C)C [NOVOBIOCIN] |  |  |  |  |  | > 30 |  |  |  | > 30 |
| CN1CC2c3ccccc3Oc3ccc(Cl)cc3C2C1 (stereo not given) [ASENAPINE] |  |  |  |  |  |  |  |  |  | 0.0097 |
| NCCCCCC(=O)O [AMINOCAPROIC ACID] |  |  |  |  |  |  | > 10 | > 10 | > 10 | > 10 |
| O=C(O)[C@H]1/C(=C/CO)O[C@@H]2CC(=O)N21 [CLAVULANIC ACID] |  |  |  |  |  | > 30 |  |  |  | > 30 |
| O=C(c1ccccc1)c1ccc2n1CCC2C(=O)O (stereo not given) [KETOROLAC] |  |  |  |  |  |  | > 30 | > 30 | > 10 | > 10 |
| O=NN(CCCl)C(=O)NC1CCCCC1 [LOMUSTINE] | > 30 | > 30 | > 30 | > 30 | > 30 |  |  |  |  |  |
| O=C(Cc1cccs1)N[C@@H]1C(=O)N2C(C(=O)[O-])=C(C[n+]3ccccc3)CS[C@H]12 [CEPHALORIDINE] | > 30 | > 30 | > 30 | > 30 | > 30 |  | > 30 | > 30 |  | > 30 |

| Structure (SMILES) | AC50 (D(3) dopamine receptor) [µM] | AC50 [1] [µM] | AC50 [2] [µM] | AC50 [3] [µM] | AC50 (Thromboxane A2 receptor) [µM] | AC50 [4] [µM] | AC50 (Histamine H2 receptor) [µM] | AC50 [5] [µM] | AC50 [6] [µM] | AC50 [7] [µM] |
| --- | --- | --- | --- | --- | --- | --- | --- | --- | --- | --- |
| CC(=O)Oc1ccccc1C(=O)O [ASPIRIN] | > 30 | > 30 | > 30 | > 30 | > 30 |  | > 10 | > 10 | > 10 | > 10 |
| C[C@H](CCC(=O)O)[C@H]1CC[C@H]2[C@@H]3[C@H](O)C[C@@H]4C[C@H](O)CC[C@]4(C)[C@H]3CC[C@]12C [CHENODIOL] |  |  |  |  |  |  |  |  |  | > 30 |
| CN(C)CCCC1(c2ccc(F)cc2)OCc2cc(C#N)ccc21 (stereo not given) [CITALOPRAM] |  |  |  | > 30 | > 30 |  |  | > 10 | > 10 | > 10 |
| NCCCNCCSP(=O)(O)O [AMIFOSTINE] |  |  |  |  |  |  | > 30 | > 30 | > 30 | > 30 |
| CCOC(=O)[C@H](CCc1ccccc1)N[C@@H](C)C(=O)N1Cc2ccccc2C[C@H]1C(=O)O | > 30 | > 30 | > 30 | > 30 | > 30 |  | > 10 | > 10 | > 10 | > 10 |
| NCC1(CC(=O)O)CCCCC1 [GABAPENTIN] | > 30 | > 30 | > 30 | > 30 | > 30 |  | > 10 | > 10 | > 10 | > 30 |
| COc1cc2c(cc1OC)C1CC(=O)C(CC(C)C)CN1CC2 (stereo not given) [TETRABENAZINE] |  |  |  |  |  | > 30 |  |  |  | > 30 |
| CC(C)(CO)c1cc2cc(NC(=O)C3(c4ccc5c(c4)OC(F)(F)O5)CC3)c(F)cc2n1C[C@@H](O)CO [TEZACAFTOR] |  |  |  |  |  | > 30 |  |  |  | > 10 |
| O=C(O)[C@@H](S)[C@@H](S)C(=O)O | > 30 | > 30 | > 30 | > 30 | > 30 |  |  |  |  |  |
| Nc1c2c(nc3ccccc13)CCCC2O (stereo not given) [VELNACRINE] |  |  |  |  |  | > 30 |  |  |  | > 30 |
| C[C@H](CS)C(=O)N1CCC[C@H]1C(=O)O [CAPTOPRIL] |  |  |  |  |  |  | > 30 | > 10 | > 10 |  |
| Cc1c(C)c2c(c(C)c1O)CCC(C)(COc1ccc(CC3SC(=O)NC3=O)cc1)O2 (stereo not given) [TROGLITAZONE] | 6.23 | 17.8 | 8.75 | > 30 |  |  | > 30 | > 30 |  | 6.9 |
| O=P1(N(CCCl)CCCl)NCCCO1 (stereo not given) [CYCLOPHOSPHAMIDE ANHYDROUS] | > 30 | > 30 | > 30 | > 30 | > 30 |  |  |  |  |  |
| CC(=O)NC[C@H]1CN(c2ccc(N3CCOCC3)c(F)c2)C(=O)O1 [LINEZOLID] |  |  |  |  |  |  | > 30 | > 30 |  | > 30 |
| Cn1cnc2c(F)c(Nc3ccc(Br)cc3F)c(C(=O)NOCCO)cc21 [BINIMETINIB] |  |  |  |  |  | > 30 |  |  |  | > 30 |
| CCC1(c2ccccc2)C(=O)NCNC1=O [PRIMIDONE] |  |  |  |  |  |  | > 10 | > 10 | > 10 | > 10 |
| Nc1nnc(-c2cccc(Cl)c2Cl)c(N)n1 [LAMOTRIGINE] |  |  |  |  |  |  | > 10 | > 10 | > 10 | > 10 |
| CCC[C@@]1(CCc2ccccc2)CC(O)=C([C@H](CC)c2cccc(NS(=O)(=O)c3ccc(C(F)(F)F)cn3)c2)C(=O)O1 |  |  |  |  |  | > 30 |  |  |  | > 30 |
| CCOCC(O)COc1ccc(NC(=O)CC[S+](C)C)cc1 (stereo not given) |  |  |  |  |  | > 30 |  |  |  | > 30 |
